Data from PubChem BioAssay (NCI).
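Compound exposure: 48 hours, 5 concentrations, 96-well plates. GI50 is the concentration that inhibits growth by half. TGI denotes the concentration required for complete inhibition of growth.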

Key:
Assay in all cases: inhibition of tumour cell growth, NCI panel, 48 h
DU-145 prostate = system: DU-145 prostate
MDA-MB-468 breast = system: MDA-MB-468 breast
CCRF-CEM leukemia = system: CCRF-CEM leukemia
SW-620 colon = system: SW-620 colon
M14 melanoma = system: M14 melanoma
HL-60(TB) leukemia = system: HL-60(TB) leukemia
HCC-2998 colon = system: HCC-2998 colon
SF-539 CNS = system: SF-539 CNS
RXF 393 renal = system: RXF 393 renal
PC-3 prostate = system: PC-3 prostate
SF-295 CNS = system: SF-295 CNS
T-47D breast = system: T-47D breast
HS 578T breast = system: HS 578T breast
MDA-MB-435 = system: MDA-MB-435
NCI-H226 lung = system: NCI-H226 lung
A498 renal = system: A498 renal
OVCAR-4 ovarian = system: OVCAR-4 ovarian
NCI-H23 lung = system: NCI-H23 lung
HOP-92 NSCLC = system: HOP-92 NSCLC
K-562 leukemia = system: K-562 leukemia
SNB-19 CNS = system: SNB-19 CNS
ACHN renal = system: ACHN renal
TK-10 renal = system: TK-10 renal
HCT-15 colon = system: HCT-15 colon
A549 NSCLC = system: A549 NSCLC
MCF7 breast = system: MCF7 breast
MOLT-4 leukemia = system: MOLT-4 leukemia
IGROV1 ovarian = system: IGROV1 ovarian

For `Cc1ccc([N+](=O)[O-])c(C(=O)Nc2ccc(-c3ccc4c(c3)NC(=O)/C4=C\c3ccc[nH]3)cc2)c1`, the GI50 (DU-145 prostate) was 43.8 µM, the TGI (DU-145 prostate) was > 100 µM and the GI50 (MDA-MB-468 breast) was 0.267 µM. The TGI (MDA-MB-468 breast) was 0.943 µM, the GI50 (CCRF-CEM leukemia) was > 100 µM and the TGI (CCRF-CEM leukemia) was > 100 µM. The GI50 (SW-620 colon) was > 100 µM, the TGI (SW-620 colon) was > 100 µM and the GI50 (M14 melanoma) was > 100 µM. The TGI (M14 melanoma) was > 100 µM, the GI50 (HL-60(TB) leukemia) was > 100 µM and the TGI (HL-60(TB) leukemia) was > 100 µM. For the same molecule, the GI50 (HCC-2998 colon) was 60 µM, the TGI (HCC-2998 colon) was > 100 µM and the GI50 (SF-539 CNS) was 25.4 µM. The TGI (SF-539 CNS) was > 100 µM, the GI50 (RXF 393 renal) was 14.6 µM and the TGI (RXF 393 renal) was 30.6 µM. The GI50 (PC-3 prostate) was > 100 µM, the TGI (PC-3 prostate) was > 100 µM and the GI50 (SF-295 CNS) was 29.2 µM. For the same molecule, the TGI (SF-295 CNS) was > 100 µM, the GI50 (T-47D breast) was 0.515 µM and the TGI (T-47D breast) was 20.9 µM. The GI50 (HS 578T breast) was 26.3 µM, the TGI (HS 578T breast) was > 100 µM and the GI50 (MDA-MB-435) was > 100 µM. For the same molecule, the TGI (MDA-MB-435) was > 100 µM, the GI50 (NCI-H226 lung) was 23.4 µM and the TGI (NCI-H226 lung) was > 100 µM. For the same molecule, the GI50 (A498 renal) was 23 µM, the TGI (A498 renal) was 49.8 µM and the GI50 (OVCAR-4 ovarian) was 24.4 µM. The TGI (OVCAR-4 ovarian) was > 100 µM, the GI50 (NCI-H23 lung) was 1.78 µM and the TGI (NCI-H23 lung) was 19.2 µM. The GI50 (HOP-92 NSCLC) was 21.3 µM, the TGI (HOP-92 NSCLC) was 57.1 µM and the GI50 (K-562 leukemia) was > 100 µM. For the same molecule, the TGI (K-562 leukemia) was > 100 µM, the GI50 (SNB-19 CNS) was 19.9 µM and the TGI (SNB-19 CNS) was 50.3 µM. For the same molecule, the GI50 (ACHN renal) was 43.6 µM, the TGI (ACHN renal) was > 100 µM and the GI50 (TK-10 renal) was 22.7 µM. For the same molecule, the TGI (TK-10 renal) was 62 µM, the GI50 (HCT-15 colon) was > 100 µM and the TGI (HCT-15 colon) was > 100 µM. For the same molecule, the GI50 (A549 NSCLC) was > 100 µM, the TGI (A549 NSCLC) was > 100 µM and the GI50 (MCF7 breast) was 0.237 µM. The TGI (MCF7 breast) was 17.1 µM, the GI50 (MOLT-4 leukemia) was 11.2 µM and the TGI (MOLT-4 leukemia) was > 100 µM. The GI50 (IGROV1 ovarian) was 17.8 µM.
